Laboratory results reported in PubChem BioAssay (NCI).
Values joined by “and” are separate entries in the source; they are usually repeats but may differ in a detail not shown here. Equal entries are not always repeated.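 Each compound was tested at five concentrations against cells in 96-well plates for 48 hours. GI50 is the concentration that inhibits growth by half. TGI: total growth inhibition.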

Experiments:
Experiment in all cases: NCI-60 cell line screen, 48 h
ACHN renal = system: ACHN renal
MDA-N = system: MDA-N
SF-539 CNS = system: SF-539 CNS
SNB-75 CNS = system: SNB-75 CNS
HCT-15 colon = system: HCT-15 colon
NCI-H460 lung = system: NCI-H460 lung
SF-295 CNS = system: SF-295 CNS
DU-145 prostate = system: DU-145 prostate
HT29 colon = system: HT29 colon
SR leukemia = system: SR leukemia

Compound	TGI (ACHN renal)	TGI (MDA-N)	TGI (SF-539 CNS)	TGI (SNB-75 CNS)	TGI (HCT-15 colon)	TGI (NCI-H460 lung)	TGI (SF-295 CNS)	TGI (DU-145 prostate)	TGI (HT29 colon)	TGI (SR leukemia)	GI50 (SNB-75 CNS)	GI50 (NCI-H460 lung)	GI50 (DU-145 prostate)	GI50 (HT29 colon)	GI50 (SR leukemia)
CC(C)=CC(=O)c1[nH]c2ccccc2c1CC(=O)NCCc1cncn1C	> 100 µM	> 100 µM	> 100 µM	> 100 µM	> 100 µM	> 100 µM	> 100 µM	> 100 µM	> 100 µM	68 µM					
CCOC(=O)C1(C#N)CC1	> 100 µM	> 100 µM	> 100 µM	> 100 µM	> 100 µM	> 100 µM	> 100 µM	> 100 µM	> 100 µM	> 100 µM					
CN(C)c1ccc(/C=C/c2sc3ccccc3[n+]2C)cc1	9.85 µM and 7.49 µM	7.36 µM	9.91 µM and 17.8 µM		29.3 µM and 24.2 µM	5.28 µM and 7.85 µM	24.8 µM and 23.1 µM	13.2 µM and 11.2 µM	11.8 µM and 12 µM	8.87 µM and 2.6 µM	0.35 µM and 2.3 µM	1.88 µM and 0.744 µM	2.57 µM and 0.532 µM	2.71 µM and 1.14 µM	2.07 µM and 0.268 µM
C#CC(O)/C=C/CCCCCCC#CC/C=C\CC#CCCCCCCCCC(O)C#C (centres undefined)	29.5 µM	5.48 µM	40.4 µM	23.4 µM	10.4 µM	41.5 µM	30.3 µM	24.1 µM	12.3 µM	> 22 µM					
CC1(C)COC2=C(C1)C(=O)c1ccccc1C2=O	2.9 µM	0.325 µM	2.9 µM	3.04 µM	2.41 µM	3.64 µM	3 µM	3.07 µM	5.41 µM	8.37 µM					
COC1(CC[C@@H](C)COC2OC(CO)C(O)C(O)C2O)O[C@H]2C[C@H]3[C@@H]4CC=C5C[C@@H](OC6OC(CO)C(O)C(OC7OC(CO)C(O)C(O)C7O)C6OC6OC(C)C(O)C(O)C6O)CC[C@]5(C)[C@H]4CC[C@]3(C)[C@H]2[C@@H]1C (some centres undefined)	30.1 µM	23.1 µM	7.11 µM	11.2 µM	11.8 µM	14.8 µM	11.3 µM	14.7 µM	> 23.1 µM	> 100 µM					
COc1ccc(C2C(=O)c3c(OC)cc(OC)cc3OC2c2cccnc2)cc1 (centres undefined)	> 100 µM	> 100 µM	> 100 µM	84.1 µM	> 100 µM	> 100 µM	> 100 µM	> 100 µM	> 100 µM	> 100 µM					
